Measured values: ChEMBL document CHEMBL1146067, “Free radical scavenging and antioxidant activities of substituted hexahydropyridoindoles. Quantitative structure-activity relationships” (J Med Chem, 2006)

Tested on: Radical scavenging activity
Assay: Antioxidant activity in unilamellar DOPC liposomes
Assay type: functional, subcellular, Liposome

Row | Compound | Log IC50
1 | CCOC(=O)N1CC[C@@H]2Nc3cc(C)c(OC)c(C)c3[C@@H]2C1 (racemic) | -4.7
2 | Cc1c(Br)cc2c(c1C)N[C@H]1CCN(C(=O)OCc3ccccc3)C[C@@H]21 (racemic) | -5.53
3 | COc1ccc2c(c1)[C@@H]1CN(C(=O)OC(C)(C)C)CC[C@@H]1N2 (racemic) | -5.12
4 | Cc1cc(Br)c2c(c1)[C@@H]1CN(C)CC[C@@H]1N2 (racemic) | -4.8
5 | COc1c(C)cc2c(c1C)[C@@H]1CN(C(=O)OCC(C)C)CC[C@@H]1N2 (racemic) | -5.19
6 | CN1CC[C@@H]2Nc3ccc(O)cc3[C@@H]2C1 (racemic) | -4.68
7 | Cc1cc(N)c2c(c1)[C@@H]1CN(C)CC[C@@H]1N2 (racemic) | -4.9
8 | CCCOC(=O)N1CC[C@@H]2Nc3cc(C)c(OC)c(C)c3[C@@H]2C1 (racemic) | -5.16
9 | Cc1cc(C)c2c(c1)[C@@H]1CN(C(=O)OCc3ccccc3)CC[C@@H]1N2 (racemic) | -5.36
10 | COc1ccc2c(c1)[C@H]1CN(C)CC[C@H]1N2 | -4.48
11 | Cc1cc2c(c([N+](=O)[O-])c1)N[C@H]1CCN(C)C[C@@H]21 (racemic) | -4.58
12 | Cc1cc2c(c(N(C)C)c1)N[C@H]1CCN(C)C[C@@H]21 (racemic) | -4.66
13 | COC(=O)N1CC[C@@H]2Nc3c(Br)c(C)c(OC)c(C)c3[C@@H]2C1 (racemic) | -4.71
14 | COc1cc(C)c2c(c1)[C@@H]1CN(C(=O)OCc3ccccc3)CC[C@@H]1N2 (racemic) | -5.29
15 | COc1c(C)cc2c(c1C)[C@@H]1CN(C(=O)OCc3ccccc3)CC[C@@H]1N2 (racemic) | -5.48
16 | CCCCOC(=O)N1CC[C@@H]2Nc3cc(C)c(OC)c(C)c3[C@@H]2C1 (racemic) | -5.35
17 | Cc1ccc2c(c1)[C@H]1CN(C)CC[C@H]1N2 [STOBADINE] | -4.6
18 | COC(=O)N1CC[C@@H]2Nc3cc(C)c(OC)c(C)c3[C@@H]2C1 (racemic) | -4.71
19 | COc1ccc2c(c1)[C@@H]1CN(C(=O)OCc3ccccc3)CC[C@@H]1N2 (racemic) | -5.49
